Experimental data reported in patent publication US20060069132A1, “Azolecarboxamide herbicides” (priority 2004, published 2006).

Experiments:
[1] = tested on: small flower umbrella sedge; assay: Test B flooded paddy test; assay type: in vivo, Cyperus difformis; settings: 1000 g ai/ha, scale 0 to 100 (0 no effect, 100 complete control)
In short: (§1)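 Greenhouse test; postemergence application to plants at 1–4 leaves (2–18 cm); paddy species at 2 leaves; evaluated visually vs controls at 13–15 days; scale 0–100 (100 = complete control).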

ducksalad [2] = assay: Test B flooded paddy test; assay type: in vivo, Heteranthera limosa; settings: 1000 g ai/ha, scale 0 to 100 (0 no effect, 100 complete control)
In short: as §1

wheat = assay: Test B postemergence herbicide test; assay type: in vivo, Triticum aestivum; design: key to Wheat plant response rating: 0 = no effect, 100 = complete control; settings: postemergence, visual rating, scale 0 (no effect) to 100 (complete control)
In short: (§2)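 Read-out: visual comparison with controls, scored 0 to 100, where 100 means complete control and 0 no effect. Formulated chemicals were applied postemergence to plants 2–18 cm tall (1- to 4-leaf), or to flooded-paddy plants at the 2-leaf stage, then held 13 to 15 days under glass.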

wild oat = assay: Test B postemergence herbicide test; assay type: in vivo, Avena fatua; settings: postemergence, visual rating, scale 0 (no effect) to 100 (complete control)
In short: as §2

barnyardgrass [3] = assay: Test B pre-/postemergence herbicide test; assay type: in vivo, Echinochloa crus-galli; settings: 0 = no effect, 100 = complete control, preemergence
In short: (§3)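 Greenhouse pot assay with simultaneous preemergence (treated seed) and postemergence (2–18 cm seedlings) applications of surfactant-containing, non-phytotoxic solvent formulations. Response scored visually 13–15 days later on a 0–100 scale, 100 meaning complete control.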

blackgrass = assay: Test B postemergence herbicide test; assay type: in vivo, Alopecurus myosuroides; settings: postemergence, visual rating, scale 0 (no effect) to 100 (complete control)
In short: as §1

lambsquarters = assay: Test B pre-/postemergence herbicide test; assay type: in vivo, Chenopodium album; settings: for Lambsquarters plant response rating: postemergence, scale 0 (no effect) to 100 (complete control)
In short: (§4)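 Visual rating, 0 (no effect) to 100 (complete control), versus untreated controls after 13–15 d in greenhouse. Pre- and postemergence applications (postemergence plants 2–18 cm, 1–4 leaves); flooded paddy arm at 2-leaf stage. Compounds in non-phytotoxic solvent plus surfactant.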

velvetleaf = assay: Test B pre-/postemergence herbicide test; assay type: in vivo, Abutilon theophrasti; settings: for Velvetleaf plant response rating: postemergence, scale 0 (no effect) to 100 (complete control)
In short: as §4

ducksalad [4] = assay: Test C flooded paddy test; assay type: in vivo, Heteranthera limosa
rice [5] = assay: Test B pre-/postemergence herbicide test; assay type: in vivo, Oryza sativa; settings: 0 = no effect, 100 = complete control, preemergence
In short: as §4

giant foxtail = assay: Test B pre-/postemergence herbicide test; assay type: in vivo, Setaria faberi; settings: for Foxtail, Giant plant response rating: postemergence, scale 0 (no effect) to 100 (complete control)
In short: as §4

cocklebur = assay: Test B pre-/postemergence herbicide test; assay type: in vivo, Xanthium strumarium; settings: for Cocklebur plant response rating: postemergence, scale 0 (no effect) to 100 (complete control)
In short: as §3

corn = assay: Test B pre-/postemergence herbicide test; assay type: in vivo, Zea mays; settings: for Corn plant response rating: postemergence, scale 0 (no effect) to 100 (complete control)
In short: as §4

barnyardgrass [6] = assay: Test B flooded paddy test; assay type: in vivo, Echinochloa crus-galli; settings: 1000 g ai/ha, scale 0 to 100 (0 no effect, 100 complete control)
In short: as §1

pigweed = assay: Test B pre-/postemergence herbicide test; assay type: in vivo, Amaranthus retroflexus; settings: for Pigweed plant response rating: postemergence, scale 0 (no effect) to 100 (complete control)
In short: as §4

rice [7] = assay: Test B flooded paddy test; assay type: in vivo, Oryza sativa; settings: 1000 g ai/ha, scale 0 to 100 (0 no effect, 100 complete control)
In short: as §2

rice [8] = assay: Test C flooded paddy test; assay type: in vivo, Oryza sativa
In short: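 Postemergence sprays applied to plants 2 to 18 cm tall (1- to 4-leaf stage); paddy species grown to 2-leaf stage under flooding. After 12 to 14 days in greenhouse, visual rating versus untreated controls on 0–100 scale (0 no effect, 100 complete control).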

barnyardgrass [9] = assay: Test C flooded paddy test; assay type: in vivo, Echinochloa crus-galli
In short: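 Postemergence sprays were applied to plants 2 to 18 cm tall (1- to 4-leaf stage); in the flooded paddy test, barnyardgrass was grown to the 2-leaf stage. After 12 to 14 days in a greenhouse, injury was visually rated against untreated controls on a 0–100 scale (100 = complete control).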

large crabgrass = assay: Test B pre-/postemergence herbicide test; assay type: in vivo, Digitaria sanguinalis; settings: for Crabgrass, Large plant response rating: postemergence, scale 0 (no effect) to 100 (complete control)
In short: as §4

Surinam grass = assay: Test B pre-/postemergence herbicide test; assay type: in vivo, Urochloa decumbens; settings: for Surinam Grass plant response rating: postemergence, scale 0 (no effect) to 100 (complete control)
In short: as §4

[10] = tested on: smallflower umbrella sedge; assay: Test C flooded paddy test; assay type: in vivo, Cyperus difformis
morningglory = assay: Test B pre-/postemergence herbicide test; assay type: in vivo, Ipomoea coccinea
In short: as §3

[11] = 125 g ai/ha, 0 = no effect, 100 = complete control, preemergence
[12] = 500 g ai/ha, visual rating, 0 = no effect, 100 = complete control, preemergence
[13] = 62 g ai/ha, scale 0 to 100 (0 no effect, 100 complete control)
[14] = 125 g ai/ha, scale 0 to 100 (0 no effect, 100 complete control)
[15] = 250 g ai/ha, scale of 0 to 100, 0 is no effect, 100 is complete control
[16] = 500 g ai/ha, visual rating after 12 to 14 days, scale 0 to 100 (0 no effect, 100 complete control)

CCc1cn(C(C)(C)C)nc1C(=O)Nc1cc(C(=O)N(C)CC)ccn1 [Compound 235]
Sedge, Umbrella plant response rating [1]: 80
Ducksalad plant response rating (ducksalad [2]): 90
Wheat plant response rating (wheat; 125 g ai/ha): 0
Wheat plant response rating (wheat; 500 g ai/ha): 20
Oat, Wild plant response rating (wild oat; 125 g ai/ha): 10
Oat, Wild plant response rating (wild oat; 500 g ai/ha): 20
Barnyardgrass plant response rating (0 to 100 scale) (barnyardgrass [3]; 125 g ai/ha): 10
Plant response rating, Barnyardgrass (barnyardgrass [3]; 500 g ai/ha, visual rating): 50
Blackgrass plant response rating (blackgrass; 125 g ai/ha): 0
Blackgrass plant response rating (blackgrass; 500 g ai/ha): 20
Lambsquarters plant response rating (0 to 100 scale) (lambsquarters; [11]): 50
Plant response rating, Lambsquarters (lambsquarters; [12]): 90
Lambsquarters plant response rating (lambsquarters; 125 g ai/ha, visual rating): 40
Lambsquarters plant response rating (lambsquarters; 500 g ai/ha, visual rating): 50
Velvetleaf plant response rating (0 to 100 scale) (velvetleaf; [11]): 10
Plant response rating, Velvetleaf (velvetleaf; [12]): 30
Velvetleaf plant response rating (velvetleaf; 125 g ai/ha, visual rating): 20
Velvetleaf plant response rating (velvetleaf; 500 g ai/ha, visual rating): 30
Ducksalad plant response rating (ducksalad [4]; [13]): 0
Ducksalad plant response rating (ducksalad [4]; [14]): 0
Ducksalad plant response rating (ducksalad [4]; [15]): 0
Plant response rating, Ducksalad (ducksalad [4]; [16]): 75
Rice plant response rating (0 to 100 scale) (rice [5]; 125 g ai/ha): 0
Plant response rating, Rice (rice [5]; 500 g ai/ha, visual rating): 20
Foxtail, Giant plant response rating (0 to 100 scale) (giant foxtail; [11]): 0
Plant response rating, Foxtail, Giant (giant foxtail; [12]): 50
Foxtail, Giant plant response rating (giant foxtail; 125 g ai/ha, visual rating): 10
Foxtail, Giant plant response rating (giant foxtail; 500 g ai/ha, visual rating): 30
Cocklebur plant response rating (0 to 100 scale) (cocklebur; [11]): 0
Plant response rating, Cocklebur (cocklebur; [12]): 0
Cocklebur plant response rating (cocklebur; 125 g ai/ha, visual rating): 0
Cocklebur plant response rating (cocklebur; 500 g ai/ha, visual rating): 30
Corn plant response rating (0 to 100 scale) (corn; [11]): 0
Plant response rating, Corn (corn; [12]): 20
Corn plant response rating (corn; 125 g ai/ha, visual rating): 20
Corn plant response rating (corn; 500 g ai/ha, visual rating): 40
Barnyardgrass plant response rating (barnyardgrass [6]): 40
Pigweed plant response rating (0 to 100 scale) (pigweed; [11]): 30
Plant response rating, Pigweed (pigweed; [12]): 100
Pigweed plant response rating (pigweed; 125 g ai/ha, visual rating): 30
Pigweed plant response rating (pigweed; 500 g ai/ha, visual rating): 40
Rice plant response rating (rice [7]): 40
Rice plant response rating (rice [8]; [13]): 0
Rice plant response rating (rice [8]; [14]): 0
Rice plant response rating (rice [8]; [15]): 25
Plant response rating, Rice (rice [8]; [16]): 35
Barnyardgrass plant response rating (barnyardgrass [9]; [13]): 0
Barnyardgrass plant response rating (barnyardgrass [9]; [14]): 0
Barnyardgrass plant response rating (barnyardgrass [9]; [15]): 0
Plant response rating, Barnyardgrass (barnyardgrass [9]; [16]): 0
Crabgrass, Large plant response rating (0 to 100 scale) (large crabgrass; [11]): 40
Plant response rating, Crabgrass, Large (large crabgrass; [12]): 90
Crabgrass, Large plant response rating (large crabgrass; 125 g ai/ha, visual rating): 10
Crabgrass, Large plant response rating (large crabgrass; 500 g ai/ha, visual rating): 20
Surinam Grass plant response rating (0 to 100 scale) (Surinam grass; [11]): 10
Plant response rating, Surinam Grass (Surinam grass; [12]): 60
Surinam Grass plant response rating (Surinam grass; 125 g ai/ha, visual rating): 10
Surinam Grass plant response rating (Surinam grass; 500 g ai/ha, visual rating): 10
Sedge, Umbrella plant response rating [10, 13]: 0
Sedge, Umbrella plant response rating [10, 14]: 50
Sedge, Umbrella plant response rating [10, 15]: 55
Plant response rating, Sedge, Umbrella [10, 16]: 80
Morningglory plant response rating (0 to 100 scale) (morningglory; [11]): 10
Plant response rating, Morningglory (morningglory; [12]): 10
Morningglory plant response rating (morningglory; postemergence, 500 g ai/ha, visual rating, scale 0 (no effect) to 100 (complete control)): 70
